Legend:
[1] = target: M2 WT; settings: only binding curve recorded; upper limit of the true Kd; cited from earlier work
[2] = target: Udorn M2 WT (Influenza A virus, UniProt P0DOF5); assay: two-electrode voltage clamp electrophysiological; type: binding, influenza A virus A/Udorn/72; settings: amantadine vs rimantadine
Sequence of Udorn M2 WT (P0DOF5 whole entry, looked up): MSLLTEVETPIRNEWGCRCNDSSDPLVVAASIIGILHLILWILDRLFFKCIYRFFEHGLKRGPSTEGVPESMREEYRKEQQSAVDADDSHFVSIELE

Row | Structure (SMILES) | Kd [1] [µM] | binding affinity to Udorn M2 WT weaker than rimantadine [2]
1 | CC(N)C12CC3CC(CC(C3)C1)C2 (racemic) [rimantadine (racemic), rimantadine] | 7 | –
2 | C[C@H](N)C12CC3CC(CC(C3)C1)C2 [(S)-rimantadine] | 3.9 | –
3 | NC12CC3CC(CC(C3)C1)C2 [amantadine] | – | about 10 fold
